The assay relates to human foreskin primary keratinocytes. Kind of assay: Keratinocyte scratch assay with 4-AP, NGF and NGF-antibody. The assay is classed as cell-based. As to conditions: at 12 hours. The procedure:
Keratinocytes (7×10^4 cells/well) with KC medium were seeded on collagen-I pre-coated 96-well ImageLock microplate for 6 hours. For the drug treatment cells were pretreated with 4-AP prior to coating for 16-18 hours. Next, the wound scratch was created using IncuCyte automated system. After scratches the cells washed with PBS and the respective cells medium was added with individual 1 mM of 4-AP and 200 ng/ml of NGF (MyBioSource, Inc., Catlog No. MBS7114974) in keratinocytes medium and combination of 1 mM of 4-AP & 200 ng/mL NGF with or without 10 μg/ml of NGF-antibody (ThermoFisher Scientific, Catlog No. MA5-32067). The plate was incubated in Incucyte automated imaging system, wound healing and cells migration imaged for every hour until 24 hour and analyzed for percent of closure as described above procedure.

As for “NGF: nerve growth factor (NGF), MyBioSource, used at 200 ng/ml in keratinocyte scratch assay”, under “56% in control cultures, 1 mM 4-AP, 200 ng/ml NGF”, the scratch closure is listed as 75%. Also, the “scratch closure with NGF-neutralizing antibody” value (plus 10 μg/ml NGF-antibody) amounted to 67%.

Source of the values: patent publication US20240024216A1, “METHODS AND MATERIALS FOR TREATING HAIR LOSS” (The Penn State Research Foundation, priority 2021, published 2024).
